The values below come from patent publication US8853452B2, “Compounds, their syntheses, compositions, and methods to treat cancer” (The Administrators of the Tulane Educational Fund, priority 2009, dated 2014).

Series [1] deals with MCF-7 cells. The series is described as follows: Apoptosis ELISA assay (Cell Death Detection ELISA, Roche). In kind it is cell-based, Human. The settings on record: double the IC50 concentration (ceramide 8.3 μM, II-3 9.4 μM). As to the method:
The induction of apoptosis by compounds was assayed using the nucleosome ELISA kit (Roche). The kit quantified formation of cytoplasmic histone-associated oligonucleosome DNA fragments resulting from apoptosis. […] The induction of apoptosis was determined by the amount of nucleosomes in the cytoplasm per the manufacturer's protocol. The values are the mean±SE of three independent experiments.
The ability of compound II-3 to induce apoptosis in MCF-7 cells was tested. Using a Cell Death Detection ELISA (Roche) to assess apoptosis, IC50 was measured for compound II-3 and C8-ceramide.

Series [2] deals with MDA-MB-231 cells. The series is described as follows: Clonogenic survival assay. Format: cell-based, Human. Here is the method:
(§1) Human cancer cell lines derived from breast, MCF-7, endocrine-resistant MDA-MB-231, and chemoresistant MCF-7TN-R were cultured in 75 cm^2 culture flasks in DMEM (Invitrogen, Co.) supplemented with 10% FBS (Life Technologies, Inc., Gaithersburg, Md.), basic minimum MEM essential (50×, Invitrogen Co.) and MEM non-essential (100×, Invitrogen, Co.) amino acids, sodium pyruvate (100× Invitrogen Co.), antimicotic-antibiotic (10,000 U/mL penicillin G sodium; 10,000 μg/mL streptomycin sulphate; 25 μg/mL amphotericin B as Fungizone®), and human recombinant insulin (4 mg/mL Invitrogen Co). Culture flasks were maintained in a tissue culture incubator in a humidified atmosphere of 5% CO2 and 95% air at 37° C.
(§2) MCF-7, MDA-MB-231, or MCF-7TN-R cells were plated in 6-well plates at 1000 cells per well. Twenty-four hours later, cells were treated with varying concentrations of the compound and then monitored microscopically for colony growth. Ten days later the cells were fixed with 3% glutaraldehyde. Following fixation for 15 min, the plates were washed and stained with a 0.4% solution of crystal violet in 20% methanol for 30 min, washed with PBS, and air-dried. Colonies of 30 cells were counted as positive. Results are normalized to percent clonogenic survival from untreated control cells. Statistical analysis of IC50 values were calculated from concentration-response curves using GraphPad Prism 5.0 (Graphpad Software, San Diego, Calif.), using with the equation: Y=Bottom+(Top−bottom)/1+10 Log EC50−X.
(§3) Compounds II-1, II-2, II-3, II-4, II-5, and II-6 were compared for their inhibitory effect on breast cancer clonogenic survival. Cells were treated with varying concentration of compound, ranging from 0.1 μM-20 μM for 10 days. […] At endpoint, cell colonies were fixed, stained and recorded as percent vehicle control.

For series [3], the system named is MCF-7TN-R cells. The series is described as follows: Clonogenic survival assay. Format: cell-based, Human. As to the method:
as §1, §2, §3

For series [4], the system named is MCF-7 cells. The series is described as follows: Clonogenic survival assay. In kind it is cell-based, Human. As to the method:
as §1, §2, §3

For series [5], the system named is MDA-MB-231 cells. The series is described as follows: Cellular sphingolipid species by lipidomics analysis. Format: cell-based, Human. The settings on record: 10 μM, 24 h. As to the method: (§4) (A) MCF-7, (B) MDA-MB-231, and (C) MCF-7TN-R cells were treated with ceramide (10 μM) and II-3 (10 μM) for 24 h. The values are the mean±SE of two independent experiments. S2 Endogenous lipid levels were quantified by mass spectrometry (Lipidomics Core, Medical University of South Carolina) according to published methods. Briefly, cells were collected, fortified with internal standards and extracted with ethyl acetate/isopropyl alcohol. ESI/MS/MS analyses of sphingoid bases, sphingoid base 1-phosphates, ceramides, and sphingomyelins were performed on a Thermo Finnigan TSQ 7000 triple quadrupole mass spectrometer.
(§5) The effect of compound II-3 on endogenous sphingolipid levels was compared to C8-ceramide using Lipidomics Analysis (FIG. 19-21). Dihydrosphingosine is elevated following compound II-3 treatment, with almost a 50 fold increase in MCF-7TN-R cells. Sphingosine-1-phosphate, the proliferative metabolite of ceramide, decreased in all three cell lines. C8-ceramide had the opposite effect and increased sphingosine-1-phosphate levels.

In series [6] the test system is MCF-7TN-R cells. The description is as above. Format: cell-based, Human. The settings on record: 10 μM, 24 h. Here is the method:
as §4, §5

Series [7] relates to MCF-7 cells. The description is as above. Format: cell-based, Human. The settings on record: 10 μM, 24 h. Here is the method: as §4, §5
In series [8] the test system is MCF10A (normal breast epithelial) cells. The series is described as follows: Proliferation assay in normal breast epithelial cells. Format: cell-based. The note with it: for effect on normal breast epithelial proliferation: MCF10A, even at 100 μM, 24 h. Here is the method: MCF10A cells were treated with varying concentrations of drug (0.1-100 μM) for 24 h. The values are the mean±SE of four independent experiments.
The selectivity of compound II-3 and C8-ceramide to inhibit cell growth of cancer cells was determined by performing proliferation assays using MCF10A (normal breast epithelial) cells (FIG. 18).

Series [9] concerns MDA-MB-231 cells. The series is described as follows: Viability assay using MTT. Format: cell-based. The note with it: Homo sapiens, 24 h, compounds 0.1 to 100 μM, unit inferred, read-out: MDA-MB-231 (IC50), Viability Assays. Here is the method: as §1
(§6) The effect of ceramide and compounds on cell growth was determined using MTT viability assays. MCF-7, MDA-MB-231, or MCF-7TN-R cells were plated at […] cells per well in a 96-well plate in phenol-free DMEM supplemented with 5% FBS and allowed to adhere overnight. Cells were then treated with compounds I-1, I-2, I-3, or I-4 (ranging from 0.1 to 100 μM) for 24 h. Following that treatment, 20 μL of MTT (5 mg/ml) reagent was added to each well prior to incubation for 4 hr. Cells were then lysed with 20% SDS in 50% dimethylformamide. The pH and absorbances were read on an EL×808 Microtek plate reader (Winooski, Vt.) at 550 nm, with a reference wavelength of 630 nm.
(§7) Statistical analysis of IC50 values were calculated from concentration-response curves using GraphPad Prism 5.0 (Graphpad Software, San Diego, Calif.), using with the equation: Y=Bottom+(Top−bottom)/1+10 Log EC50−X assuming a standard slope, where the response goes from 10% to 90% of maximal as X increases over two log units. Differences in IC50 were compared using Student's unpaired t-test with p<0.05 as the limit of statistical significance. Experiments comparing multiple concentrations to the control were tested with one-way ANOVA with Bonferroni post-test to compare individual concentrations. All statistical analysis were done using GraphPad Prism 5.0. […].

The subject of series [10] is MCF-7TN-R cells. The series is described as follows: Viability assay using MTT. Format: cell-based. The note with it: Homo sapiens, 24 h, compounds 0.1 to 100 μM, unit inferred, read-out: MCF-7TN-R (IC50), Viability Assays. Here is the method:
as §1, §6, §7

The subject of series [11] is MCF-7 cells. The series is described as follows: Viability assay using MTT. In kind it is cell-based. The settings on record: Homo sapiens, MCF7, 24 h, compounds 0.1 to 100 μM, unit inferred, read-out: MCF-7 (IC50), Viability Assays. Here is the method:
as §1, §6, §7

Series [12] concerns MCF-7 cell line. The series is described as follows: Proliferation assay. The note with it: Homo sapiens, MCF7; FIG. 15; read-out: anti-proliferative IC50, MCF-7. Format: cell-based. As to the method: (§8) The ability of compound II-3 to block proliferation as an anti-survival mechanism in addition to apoptosis was determined by measuring anti-proliferative effects.
In series [13] the test system is MDA-MB-231 cell line. Put plainly: Proliferation assay. In kind it is cell-based. The note with it: Homo sapiens, FIG. 16, read-out: anti-proliferative IC50, MDA-MB-231. Here is the method: as §8
In series [14] the test system is MCF-7TN-R cells. Put plainly: Proliferation assay. Format: cell-based. The settings on record: Homo sapiens; FIG. 17; read-out: anti-proliferative IC50, MCF-7TN-R. As to the method: as §8
Nineteen compounds were synthesized using fifteen benzaldehydes as starting material. […] These were tested as potential anti-proliferative agents in MCF-7TN-R cells, and the structure-activity relationships were studied using several parameters. […] In compounds containing a methyl group, a significant increase of the PAC (C) in o-substituted compound was detected, which may account for the increased anti-proliferation activity. Ortho-substituted analogs with electron withdrawing groups by induction can have beneficial effects, and PAC (C) can be a useful predictor of the structural property of the molecule.

[15] abbreviates: Table 2, 0.1 μM-20 μM for 10 days, read-out: MDA-MB-231 (IC50), clonogenic survival.
The mark [16] stands for this setting: Table 2, 0.1 μM-20 μM for 10 days, read-out: MCF-7-TNR (IC50), clonogenic survival.
[17] abbreviates: Table 2, 0.1 μM-20 μM for 10 days, read-out: MCF-7 (IC50), clonogenic survival.
Setting [18] is: Homo sapiens, MDA-MB-231, 240 h, Table 1B, 10 days, read-out: MDA-MB-231 (IC50), Clonogenic Survival Assays.
The mark [19] stands for this setting: Homo sapiens, 240 h, Table 1B, 10 days, read-out: MCF-7TN-R (IC50), Clonogenic Survival Assays.
The mark [20] stands for this setting: Homo sapiens, MCF7, 240 h, Table 1B, 10 days, read-out: MCF-7 (IC50), Clonogenic Survival Assays.

As to `CCCCCCCCCCCCC/C=C/[C@@H](O)[C@H](CO)NC(=O)CCCCCCC` [Compound C8-Cer, D-erythro N-octanoyl sphingosine, reference compound], the “fold induction in apoptosis” value in series [1] (24 hours) is reported as 5.0 fold. Besides, the IC50 in [2] (setting [15]) is 3 µM; in series [3] (setting [16]) it was 8.6 µM; in series [4] (setting [17]), 4.2 µM. In addition, the Sphingosine-1-phosphate level result in series [5], in series [6] and in series [7] was “increased” in each case. Besides, the “effect on normal breast epithelial proliferation” value in series [8] was “little effect”.

Turning to `CCCCCCCCCCCCC/C=C/[C@@H](O)[C@H](CO)/N=C/c1ccccc1` [Compound I-3, (2S,3R,E)-2-((E)-benzylideneamino)octadec-4-ene-1,3-diol], the IC50 in series [9] came to 4.8 µM; in series [10] it was 3.6 µM; in series [11], 9 µM; in [2] (setting [18]), 1.4 µM; in series [3] (setting [19]), 0.1 µM; in series [4] (setting [20]) it was 1.7 µM.

As to `CCCCCCCCCCCCC/C=C/[C@@H](O)[C@H](CO)NC(=O)C(C)(C)C` [Compound I-4, N-((2S,3R,E)-1,3-dihydroxyoctadec-4-en-2-yl)pivalamide], the IC50 in [9] is 8 µM; in series [10], 4.2 µM; in series [11], 13.5 µM; in [2] (setting [18]), 0.5 µM; in [3] (setting [19]), 0.6 µM; in [4] (setting [20]), 1.5 µM.

`CCCCCCCCCCCCCCNC(=O)[C@H](CO)N=Cc1ccccc1` [II-3, (S)-2-(benzylideneamino)-3-hydroxy-N-tetradecylpropanamide]: the fold induction at 9.4 µM in series [1] (Homo sapiens, MCF7, 24 hours) was 5.4. Besides, the IC50 in [12] came out at 4.5 µM; in series [13], 1.8 µM; in series [14], 1.2 µM; in [2] (Homo sapiens, MDA-MB-231, 240 h, Table 2, 0.1 μM-20 μM for 10 days, read-out: MDA-MB-231 (IC50), clonogenic survival) it was 2.35 µM; in [2] (setting [15]), 2.4 µM; in series [3] (Homo sapiens, 240 h, Table 2, 0.1 μM-20 μM for 10 days, read-out: MCF-7-TNR (IC50), clonogenic survival), 7.67 µM. For the same compound, the IC50 in series [3] (setting [16]) stood at 7.7 µM; in series [4] (Homo sapiens, MCF7, 240 h, Table 2, 0.1 μM-20 μM for 10 days, read-out: MCF-7 (IC50), clonogenic survival) it was 4.69 µM; in series [4] (setting [17]), 4.7 µM. In addition, the Sphingosine-1-phosphate level result in series [5], in [6] and in series [7] was “decreased” throughout. The Dihydrosphingosine fold increase in series [6] was roughly 50 fold. Also, the “100 μM (little effect in MCF10A) as fold of the IC50 value in chemoresistant cells” value in [8] (MCF10A versus chemoresistant cells) is given as “greater than 50 fold”. The “effect on normal breast epithelial proliferation” value in series [8] is listed as “little effect”.
